Measurements published in US20050208511A1, “DMBT1 as a clinical marker and uses thereof” (priority 2003, published 2005).

System: endometrium
Assay: average endometrial thickness in treated monkeys
Type: in vivo, cynomolgus monkeys (Macaca fascicularis)
Settings: Intact/leuprolide (leuprolide for 40 days)

CCNC(=O)[C@@H]1CCCN1C(=O)[C@H](CCCNC(=N)N)NC(=O)[C@H](CC(C)C)NC(=O)[C@@H](CC(C)C)NC(=O)[C@H](Cc1ccc(O)cc1)NC(=O)[C@H](CO)NC(=O)[C@H](Cc1c[nH]c2ccccc12)NC(=O)[C@H](Cc1c[nH]cn1)NC(=O)[C@@H]1CCC(=O)N1 [leuprolide]
Endometrial Thickness (mm): 1.25 mm
